Consider 14 molecules from US7115750B1, “Melanin concentrating hormone antagonist” (Takeda Pharmaceutical Company Limited, priority 1999, dated 2006).

Each structure is given as a SMILES string.

As usually defined, the melting point is the temperature of the solid-liquid transition. For `CN(C)CC1CCc2cc(NC(=O)c3ccc(-c4ccc(Cl)cc4)cc3Cl)ccc2C1` (centres unmarked) [Example 26, 3,4′-Dichloro-N-[6-[(N,N-dimethylamino)methyl]-5,6,7,8-tetrahydro-2-naphthalenyl][1,1′-biphenyl]-4-carboxamide], the melting point was in the range of 177 to 179 °C.
`CN(C)CCNC(=O)Cc1ccc(NC(=O)CCCc2c[nH]c3ccccc23)cc1` [Example 189, N-[4-[2-[[2-(Dimethylamino)ethyl]amino]-2-oxoethyl]phenyl]-4-(1H-indol-3-yl)butanamide] gave a melting point of 132 to 133 °C.
Molecule `CN(C)CC1CCc2cc(NC(=O)c3ccc(-c4ccccc4)cc3)ccc2C1` (centres unmarked) [compound 24, N-[2-(N,N-Dimethylamino)methyl-6-tetralinyl]-4-biphenylylcarboxamide] came in with a melting point of 164 to 166 °C.
As for `CN(C)CC1=Cc2ncc(NC(=O)c3ccc(-c4ccc(Cl)cc4)cc3)cc2CC1` [Example 134, 4′-Chloro-N-[7-[(dimethylamino)methyl]-5,6-dihydro-3-quinolinyl][1,1′-biphenyl]-4-carboxamide], the melting point lay in the range of 220 to 222 °C.
Consider `CN(C)CC1=Cc2ccc(NC(=O)c3ccc(-c4ccc(F)cc4)cc3)cc2C1` [Example 245, N-[2-[(Dimethylamino)methyl]-1H-inden-6-yl]-4′-fluoro[1,1′-biphenyl]-4-carboxamide], for which the melting point is 209 to 211 °C.
With `Cl.O=C(Nc1ccc(CC2CCCNC2)cc1)c1ccc(-c2ccccc2)cc1` (centres unmarked) the figure was 218 to 220 °C (dec.).
Regarding `O=C(Nc1ccc2c(c1)OCC(CN1CCCC1)O2)c1ccc(-c2ccc(Cl)cc2)nc1` (centres unmarked) [Example 108, 6=(4-Chlorophenyl)-N-[2-(1-pyrrolidinylmethyl)-2,3-dihydro-1,4-benzodioxin-6-yl]nicotinamide], the melting point was in the range of 218 to 220 °C.
As for `O=C(Nc1ccc2c(c1)CCC(CN1CCCC1)=C2)c1ccc(-c2ccc(F)cc2)nc1` [Example 149, 6-(4-Fluorophenyl)-N-[6-[(1-pyrrolidinyl)methyl]-7,8-dihydro-2-naphthalenyl]nicotinamide], the figure is 225 to 227 °C.
With `CN(C)CC1=Cc2ccc(NC(=O)c3ccc(-c4ccc(Cl)cc4)nc3)cc2CC1` [Example 164, 6-(4-Chlorophenyl)-N-[6-[(dimethylamino)methyl]-7,8-dihydro-2-naphthalenyl]nicotinamide], the melting point lay within 248 to 249 °C.
In turn, `COc1ccc(C2CCN(C(=O)Nc3ccc4c(c3)CCC(CN3CCN(C)CC3)=C4)CC2)cc1` [Example 242, 4-(4-Methoxyphenyl)-N-[6-[(4-methyl-1-piperazinyl)methyl]-7,8-dihydro-2-naphthalenyl]-1-piperidinecarboxamide] had a melting point of 198 to 200 °C.
With `N#CC1=C(CN2CCCC2)CCc2cc(NC(=O)c3ccc(-c4ccccc4)cc3)ccc21` [Example 118, N-[5-Cyano-6-(1-pyrrolidinylmethyl)-7,8-dihydro-2-naphthalenyl][1,1′-biphenyl]-4-carboxamide], the melting point fell in the range of 168 to 170 °C.
Take `CN(C)CCNC(=O)Cc1ccc(NC(=O)c2ccc(C(=O)c3ccccc3)cc2)cc1` [Example 196, 4-Benzoyl-N-[4-[2-[[2-(dimethylamino)ethyl]amino]-2-oxoethyl)phenyl]benzamide]: the melting point is 173 to 175 °C (dec.).
In turn, `Cc1ccc(C2CCN(C(=O)Nc3ccc4c(c3)CCC(CN(C)C)=C4)CC2)cc1` [Example 167, N-[6-[(Dimethylamino)methyl]-7,8-dihydro-2-naphthalenyl]-4-(4-methylphenyl)-1-piperidinecarboxamide] yielded a melting point of 200 to 202 °C.
For the molecule `CN(C)CC1CCc2cc(NC(=O)c3ccc(-c4ccc([O-])cc4)cc3)ccc2C1.[Na+]` (centres unmarked) [Example 19, Sodium salt of N-[6-[(N,N-dimethylamino)methyl]-5,6,7,8-tetrahydro-2-naphthalenyl]-4′-oxy[1,1′-biphenyl]-4-carboxamide], the melting point is 246 to 248 °C.
